Test results taken from patent US11707454B2, “Topical roflumilast formulation having antifungal properties” (ARCUTIS BIOTHERAPEUTICS, INC., priority 2020, dated 2023).
≈ marks a conversion by molar mass, not a printed value. Like-named read-outs stand apart in the source and are kept apart here.

Legend:
[1] = tested on: C. krusei (ATCC 6258); conditions: cited from earlier work
[2] = tested on: C. krusei (ATCC 6258); experiment: in vitro micro-dilution susceptibility assay (method of Rojas); type: cell-based; conditions: for MIC: Pichia kudriavzevii, read-out: minimum inhibition concentration (MIC)
Method: (§1) The in vitro susceptibility of Malassezia species to roflumilast was determined utilizing three Candida species as internal control isolates for all testing. These three isolates were C. albicans American Type Culture Collection (ATCC) 90028, C. krusei (ATCC 6258) and C. parapsilosis (ATCC 22019). In addition to testing roflumilast all susceptibility assays were conducted using ketoconazole and hydrocortisone as positive and negative control compounds, respectively. All assays were placed within a humidified incubator set to 32° C. for a total of seven days. Each assay was evaluated after 12 hours of incubation and, every 24 hours post incubation for a total of seven days. The assays were evaluated for visual growth of each pathogen in the no treatment control as well as determination of minimum inhibition concentration (MIC) values. The concentration that provides a 3-log10 CFU/mL reduction in fungal burden from baseline at day 0 was defined as the minimum fungicidal concentration (MHC) and was determined by quantifying fungal burdens found in the microplate at day seven.
(§2) The method of Rojas (Rojas F D, et al. Antifungal susceptibility of Malassezia furfur, Malassezia sympodialis, and Malassezia globose to azole drugs and amphotericin B evaluated using a broth microdilution method. 2014. Medical Mycology. 52:641-646) was used in which the liquid broth medium was RPMI 1640 with added 1.8% glucose, 1% peptone, 0.5% ox-bile, 0.5% malt extract, 1% glycerol, 0.5% Tween 40 and 0.05% Tween 80. Round bottom 96 well microplates were used. The inoculums were prepared in sterile saline and diluted to a final targeted concentration of 0.5×10^5 to 2.5×10^5 CFU/mL in supplemented RPMI. […] For the internal control isolate C. parapsilosis (ATCC 22019) the expected CLSI values for ketoconazole of 0.03-0.25 (at 24 hours) and 0.06-0.5 (at 48 hours) did agree with the 2-day value (Table A) of 0.5.

[3] = tested on: M. restricta (ATCC MYA-4611); experiment: as above; type: cell-based
Method: as §1, §2

[4] = tested on: M. furfur (ATCC 14521); experiment: as above; type: cell-based; conditions: for MIC: Malassezia furfur, read-out: minimum inhibition concentration (MIC)
Method: as §1, §2

[5] = tested on: M. globose (ATCC MYA-4889); experiment: as above; type: cell-based
Method: as §1, §2

[6] = tested on: M. furfur (ATCC 44344); experiment: as above; type: cell-based; conditions: for MIC: Malassezia furfur, read-out: minimum inhibition concentration (MIC)
Method: as §1, §2

[7] = tested on: C. albicans (ATCC 90028); experiment: as above; type: cell-based; conditions: for MIC: Candida albicans, read-out: minimum inhibition concentration (MIC)
Method: as §1, §2

[8] = tested on: M. furfur (ATCC 12078); experiment: as above; type: cell-based; conditions: for MIC: Malassezia furfur, read-out: minimum inhibition concentration (MIC)
Method: as §1, §2

[9] = tested on: C. parapsilosis (ATCC 22019); experiment: as above; type: cell-based; conditions: C. parapsilosis (22019); for MIC: Lodderomyces parapsilosis, read-out: minimum inhibition concentration (MIC)
Method: as §1, §2

[10] = tested on: C. parapsilosis (ATCC 22019); conditions: cited from earlier work

MIC ([2]; ATCC6258, 24 h, Time 1 days): 4 µg/mL (≈ 7.53 µM)
MIC ([2]; ATCC6258, 48 h, Time 2 days): 8 µg/mL (≈ 15.1 µM)
MIC ([2]; ATCC6258, 72 h, Time 3 days): 16 µg/mL (≈ 30.1 µM)
MIC ([2]; ATCC6258, 96 h, Time 4 days): 16 µg/mL (≈ 30.1 µM)
MIC ([2]; ATCC6258, 120 h, Time 5 days): 16 µg/mL (≈ 30.1 µM)
MIC ([2]; ATCC6258, 144 h, Time 6 days): 32 µg/mL (≈ 60.2 µM)
MIC ([2]; ATCC6258, 168 h, Time 7 days): 32 µg/mL (≈ 60.2 µM)
minimum inhibition concentration (MIC) ([2]; Time 0.5 days): NGO
minimum inhibition concentration (MIC) ([3]; Time 0.5 days): NGO
minimum inhibition concentration (MIC) ([3]; Time 1 days): NGO
minimum inhibition concentration (MIC) ([3]; Time 2 days): NGO
minimum inhibition concentration (MIC) ([3]; Time 3 days): NGO
minimum inhibition concentration (MIC) ([3]; Time 4 days): NGO
minimum inhibition concentration (MIC) ([3]; Time 5 days): NGO
minimum inhibition concentration (MIC) ([3]; Time 6 days): NGO
minimum inhibition concentration (MIC) ([3]; Time 7 days): NGO
MIC ([4]; ATCC14521, 48 h, Time 2 days): 0.03 µg/mL (≈ 0.0565 µM)
MIC ([4]; ATCC14521, 72 h, Time 3 days): 0.06 µg/mL (≈ 0.113 µM)
MIC ([4]; ATCC14521, 96 h, Time 4 days): 0.06 µg/mL (≈ 0.113 µM)
MIC ([4]; ATCC14521, 120 h, Time 5 days): 0.06 µg/mL (≈ 0.113 µM)
MIC ([4]; ATCC14521, 144 h, Time 6 days): 0.06 µg/mL (≈ 0.113 µM)
MIC ([4]; ATCC14521, 168 h, Time 7 days): 0.25 µg/mL (≈ 0.47 µM)
minimum inhibition concentration (MIC) ([4]; Time 0.5 days): NGO
minimum inhibition concentration (MIC) ([4]; Time 1 days): NGO
minimum inhibition concentration (MIC) ([5]; Time 0.5 days): NGO
minimum inhibition concentration (MIC) ([5]; Time 1 days): NGO
minimum inhibition concentration (MIC) ([5]; Time 2 days): NGO
minimum inhibition concentration (MIC) ([5]; Time 3 days): NGO
minimum inhibition concentration (MIC) ([5]; Time 4 days): NGO
minimum inhibition concentration (MIC) ([5]; Time 5 days): NGO
minimum inhibition concentration (MIC) ([5]; Time 6 days): NGO
minimum inhibition concentration (MIC) ([5]; Time 7 days): NGO
MIC ([6]; ATCC44344, 48 h, Time 2 days): 0.125 µg/mL (≈ 0.235 µM)
MIC ([6]; ATCC44344, 72 h, Time 3 days): 0.125 µg/mL (≈ 0.235 µM)
MIC ([6]; ATCC44344, 96 h, Time 4 days): 0.125 µg/mL (≈ 0.235 µM)
MIC ([6]; ATCC44344, 120 h, Time 5 days): 0.25 µg/mL (≈ 0.47 µM)
MIC ([6]; ATCC44344, 144 h, Time 6 days): 0.25 µg/mL (≈ 0.47 µM)
MIC ([6]; ATCC44344, 168 h, Time 7 days): 0.125 µg/mL (≈ 0.235 µM)
minimum inhibition concentration (MIC) ([6]; Time 0.5 days): NGO
minimum inhibition concentration (MIC) ([6]; Time 1 days): NGO
MIC ([7]; ATCC90028, 24 h, Time 1 days): 0.06 µg/mL (≈ 0.113 µM)
MIC ([7]; ATCC90028, 48 h, Time 2 days): 0.06 µg/mL (≈ 0.113 µM)
MIC ([7]; ATCC90028, 72 h, Time 3 days): 0.125 µg/mL (≈ 0.235 µM)
MIC ([7]; ATCC90028, 96 h, Time 4 days): 0.25 µg/mL (≈ 0.47 µM)
MIC ([7]; ATCC90028, 120 h, Time 5 days): 0.25 µg/mL (≈ 0.47 µM)
MIC ([7]; ATCC90028, 144 h, Time 6 days): 0.25 µg/mL (≈ 0.47 µM)
MIC ([7]; ATCC90028, 168 h, Time 7 days): 0.25 µg/mL (≈ 0.47 µM)
minimum inhibition concentration (MIC) ([7]; Time 0.5 days): NGO
MIC ([8]; ATCC12078, 48 h, Time 2 days): 0.06 µg/mL (≈ 0.113 µM)
MIC ([8]; ATCC12078, 72 h, Time 3 days): 0.06 µg/mL (≈ 0.113 µM)
MIC ([8]; ATCC12078, 96 h, Time 4 days): 0.06 µg/mL (≈ 0.113 µM)
MIC ([8]; ATCC12078, 120 h, Time 5 days): 0.06 µg/mL (≈ 0.113 µM)
MIC ([8]; ATCC12078, 144 h, Time 6 days): 0.06 µg/mL (≈ 0.113 µM)
MIC ([8]; ATCC12078, 168 h, Time 7 days): 0.25 µg/mL (≈ 0.47 µM)
minimum inhibition concentration (MIC) ([8]; Time 0.5 days): NGO
minimum inhibition concentration (MIC) ([8]; Time 1 days): NGO
minimum inhibition concentration (MIC) ([9]; Time 0.5 days): NGO
MIC ([9]; ATCC22019, 24 h, Time 1 days): 0.5 µg/mL (≈ 0.941 µM)
MIC ([9]; ATCC22019, 48 h, Time 2 days): 0.5 µg/mL (≈ 0.941 µM)
MIC ([9]; ATCC22019, 72 h, Time 3 days): 0.5 µg/mL (≈ 0.941 µM)
MIC ([9]; ATCC22019, 96 h, Time 4 days): 0.5 µg/mL (≈ 0.941 µM)
MIC ([9]; ATCC22019, 120 h, Time 5 days): 1 µg/mL (≈ 1.88 µM)
MIC ([9]; ATCC22019, 144 h, Time 6 days): 1 µg/mL (≈ 1.88 µM)
MIC ([9]; ATCC22019, 168 h, Time 7 days): 2 µg/mL (≈ 3.76 µM)
SMILES: CC(=O)N1CCN(c2ccc(OCC3COC(Cn4ccnc4)(c4ccc(Cl)cc4Cl)O3)cc2)CC1 (centres unmarked) [Ketoconazole]
CLSI expected values ([1]; at 24 hours): 0.12-1
CLSI expected values ([1]; at 48 hours): 0.25-1
expected CLSI values ([10]; at 24 hours): 0.03-0.25
expected CLSI values ([10]; at 48 hours): 0.06-0.5
